The source of these data is patent US20120077677A1, “Use of 4-phenylbutyric acid and/or salts thereof for enhancing stress tolerance in plants” (BAYER CROPSCIENCE AG, priority 2010, published 2012).

In test [1] the test system is ZEAMX (Zea mays). As to the kind of experiment: Drought stress test on potted crop plants, spray application, Zea mays. The test is classed as in vivo. The conditions noted are these: dosage 250 g/ha. The method, then: (§1) Seeds of monocotyledonous and dicotyledonous crop plants are placed in sandy loam in wood-fiber pots, covered with soil and cultivated in a greenhouse under good growth conditions. The test plants were treated at the early leaf stage (BBCH10-BBCH13). To ensure uniform water supply before commencement of stress, the potted plants were supplied with the maximum amount of water immediately beforehand by dam irrigation and, after application, transferred in plastic inserts in order to prevent subsequent, excessively rapid drying. The inventive compounds, formulated in the form of wettable powders (WP), wettable granules (WG), suspension concentrates (SC) or emulsion concentrates (EC), were sprayed onto the green parts of the plants as an aqueous suspension at an equivalent water application rate of 600 l/ha with addition of 0.2% wetting agent (agrotin). Substance application was followed immediately by stress treatment of the plants (cold or drought stress). For cold stress treatment, the plants were kept under the following controlled conditions: • “day”: 12 hours with illumination at 8° C. • “night”: 12 hours without illumination at 1° C. […] The intensity of damage was first assessed as a percentage (100%=plants have died, 0%=like control plants). […]

In test [2] the test system is BRSNS (Brassica napus). The test can be described thus: Drought stress test on potted crop plants, spray application, Brassica napus. The format is in vivo. The protocol: Seeds of monocotyledonous and dicotyledonous crop plants are placed in sandy loam in wood-fiber pots, covered with soil and cultivated in a greenhouse under good growth conditions. The test plants were treated at the early leaf stage (BBCH10-BBCH13). To ensure uniform water supply before commencement of stress, the potted plants were supplied with the maximum amount of water immediately beforehand by dam irrigation and, after application, transferred in plastic inserts in order to prevent subsequent, excessively rapid drying. The inventive compounds, formulated in the form of wettable powders (WP), wettable granules (WG), suspension concentrates (SC) or emulsion concentrates (EC), were sprayed onto the green parts of the plants as an aqueous suspension at an equivalent water application rate of 600 l/ha with addition of 0.2% wetting agent (agrotin). Substance application was followed immediately by stress treatment of the plants (cold or drought stress). For cold stress treatment, the plants were kept under the following controlled conditions: • “day”: 12 hours with illumination at 8° C. • “night”: 12 hours without illumination at 1° C. Drought stress was induced by gradual drying out under the following conditions: • “day”: 14 hours with illumination at 26° C. • “night”: 10 hours without illumination at 18° C. The duration of the respective stress phases was guided mainly by the state of the untreated, stressed control plants and thus varied from crop to crop. It was ended (by re-irrigating or transfer to a greenhouse with good growth conditions) as soon as irreversible damage was observed on the untreated, stressed control plants. In the case of dicotyledonous crops, for example oilseed rape and soybeans, the duration of the drought stress phase varied between 3 and 5 days, in the case of monocotyledonous crops, for example wheat, barley or corn, between 6 and 10 days. The duration of the cold stress phase varied between 12 and 14 days. […] The intensity of damage was first assessed as a percentage (100%=plants have died, 0%=like control plants). […]

Test [3] concerns cotton. The conditions noted are these: cited from earlier work.
For test [4], the system named is TRZAS (Triticum aestivum). The test can be described thus: Drought stress test on potted crop plants, spray application, Triticum aestivum. The test is classed as in vivo. The conditions noted are these: dosage 25 g/ha. The protocol:
as §1

As to `O=C(O)CCCc1ccccc1` [4-phenylbutyric acid], the “EF (ZEAMX), efficacy = percentage reduction in the intensity of damage” value in test [1] is listed as more than 5%. Also, the “EF (BRSNS), efficacy = percentage reduction in the intensity of damage” value in test [2] (dosage 25 g/ha) is reported as more than 5%.
On to `O=C([O-])CCCc1ccccc1.[Na+]` [Compound I-2, Sodium 4-phenylbutyrate], for which the plant growth result in test [3] (application to cottonseeds, hence oil content of the harvested material) was “increases”. Also, the “translocation of mono- and disaccharides” value in test [3] (cotton, seed dressing) is “positively influenced”. The “protein content of the leaves” value in test [3] (cottonseed dressing, early growth stages, also enhances the yields) is recorded as “increases”. Also, in test [3] (cottonseed dressing, hence enhances the yields), the “flower formation and the maturing of cotton plants” value is “enhances”. Further, in test [2] (dosage 250 g/ha), the “EF (BRSNS), efficacy = percentage reduction in the intensity of damage” value is on record as more than 5%.
On to `O=C(O)CCCc1ccccc1.OCCN(CCO)CCO` [Compound I-22, Tris-N,N,N-(2-hydroxy-1-yl)ammonium 4-phenylbutyrate], for which the “EF (BRSNS), efficacy = percentage reduction in the intensity of damage” value in test [2] (dosage 25 g/ha) is on record as more than 5%. For the same compound, in test [4], the “EF (TRZAS), efficacy = percentage reduction in the intensity of damage” value is on record as more than 5%.
